Data from patent US10221163B2 (priority 2015, dated 2019).
Where two headings read alike, the source gives them in different places.

How the values were obtained:
[1] = system: Serratia marcescens expressing IMP-1 (CL5741); type: cell-based; conditions: for Serratia marcescens expressing IMP-1 (CL5741) MITC95: with imipenem 1 μg/ml, 95% inhibition of bacterial growth; for Serratia marcescens MITC95: IMP-1 strain CL5741, with imipenem 1 μg/ml, 95% inhibition of growth
Summary of the method: (§1)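 Growth by absorbance after 22–24 h at 35°C defined the read-out, with imipenem fixed at 1 μg/ml alongside compound. Inocula came from overnight blood-agar colonies at 35°C, resuspended in saline and diluted 1:100 in 1.1×CAMHB.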

[2] = system: Klebsiella pneumoniae expressing VIM-1 (IHMA599644); type: cell-based; conditions: for Klebsiella pneumoniae expressing VIM-1 (IHMA599644) MITC95: with imipenem 1 μg/ml, 95% inhibition of bacterial growth; for Klebsiella pneumoniae MITC95: VIM-1 strain IHMA599644, with imipenem 1 μg/ml, 95% inhibition of growth
Summary of the method: as §1

[3] = system: Escherichia coli expressing NDM-1 (CLB30005, CLB30016); type: cell-based; conditions: with imipenem 1 μg/ml; for Escherichia coli expressing NDM-1 (CLB30016) MITC95: 95% inhibition of bacterial growth; for Escherichia coli MITC95: NDM-1 strain, 95% inhibition of growth
Summary of the method: as §1

[4] = system: Pseudomonas aeruginosa efflux− (MB9799), IMP-1; type: cell-based; conditions: C, D serine β-lactamase inhibitor closely related to relebactam; for P. aeruginosa expressing IMP-1, efflux − (MB9799) MITC95: concentration restoring susceptibility to imipenem at 2 μg/mL in the presence of a class A; for Concentration of metallo-β-lactamase inhibitor which restores susceptibility of efflux − (MB9799) strain to imipenem: imipenem at 2 μg/mL, in the presence of a class A
Summary of the method: (§2)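 Microbroth MIC tests in PAO1-background strains with fixed imipenem and/or ceftazidime, usually at the CLSI breakpoint, plus fixed class A/C β-lactamase inhibitor against AmpC. MBL inhibitor titrated; concentration restoring susceptibility recorded and compared as fold difference between efflux+ MB9798 and efflux− MB9799.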

[5] = system: Pseudomonas aeruginosa efflux+ (MB9798), IMP-1; type: cell-based; parameters: Concentration of metallo-β-lactamase inhibitor which restores susceptibility of efflux + (MB9798) strain to imipenem: unit not given here; conditions: C, D serine β-lactamase inhibitor closely related to relebactam; for P. aeruginosa expressing IMP-1, efflux + (MB9798) MITC95: concentration restoring susceptibility to imipenem at 2 μg/mL in the presence of a class A; for Concentration of metallo-β-lactamase inhibitor which restores susceptibility of efflux + (MB9798) strain to imipenem: imipenem at 2 μg/mL, in the presence of a class A
Summary of the method: as §2

[6] = molecular target: VIM-1 (Pseudomonas aeruginosa (strain ATCC 15692 / DSM 22644 / CIP 104116 / JCM 14847 / LMG 12228 / 1C / PRS 101 / PAO1), UniProt A0A0F7KYQ8); assay: biochemical; conditions: CCF2-FA substrate, 30 pM enzyme, 2 hours at 25° C.
Protocol: Enzyme Activity: Determination of IC50
The Class B enzyme activities were measured in the presence of the test inhibitor in a fluorescence assay against a commercially available substrate consisting of a cephalosporin core linking 7-hydroxycoumarin to fluorescein (CCF2-FA). […] In a 384-well microplate, the test inhibitor was incubated with the metallo-β-lactamase enzyme and the substrate for 2 hours at 25° C. […] The IC50 value was determined from semi-logarithmic plots of enzyme inhibition versus inhibitor concentration, with a curve generated using a 4-parameter fit.

[7] = molecular target: NDM-1 (Klebsiella pneumoniae, UniProt C7C422); assay: biochemical; type: biochemical; conditions: fluorescence assay, CCF2-FA substrate, 1 pM enzyme, 2 hours at 25° C.; read-out: NDM-1 IC50
Summary of the method: (§3)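 IC50 values derive from 4-parameter fits of percent inhibition against inhibitor concentration on semi-log axes. Activity was monitored by fluorescence with the CCF2-FA substrate after a 2-hour, 25° C incubation of compound, enzyme and substrate.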

[8] = molecular target: IMP-1 (Serratia marcescens, UniProt P52699); assay: biochemical; type: biochemical; conditions: CCF2-FA substrate, 2 pM enzyme, 2 hours at 25° C.
Summary of the method: as §3

[9] = fluorescence assay, read-out: VIM-1 IC50
[10] = fluorescence assay, read-out: IMP-1 IC50

Chain of NDM-1 (C7C422 whole entry, looked up, species assumed): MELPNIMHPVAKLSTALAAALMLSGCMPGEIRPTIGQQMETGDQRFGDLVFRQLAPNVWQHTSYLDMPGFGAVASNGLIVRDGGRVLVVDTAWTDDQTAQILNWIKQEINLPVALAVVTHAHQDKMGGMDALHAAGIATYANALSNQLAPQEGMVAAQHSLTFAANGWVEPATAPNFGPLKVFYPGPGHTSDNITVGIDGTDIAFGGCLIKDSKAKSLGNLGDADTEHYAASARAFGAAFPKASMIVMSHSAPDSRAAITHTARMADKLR
Chain of IMP-1 (P52699 whole entry, looked up, species assumed): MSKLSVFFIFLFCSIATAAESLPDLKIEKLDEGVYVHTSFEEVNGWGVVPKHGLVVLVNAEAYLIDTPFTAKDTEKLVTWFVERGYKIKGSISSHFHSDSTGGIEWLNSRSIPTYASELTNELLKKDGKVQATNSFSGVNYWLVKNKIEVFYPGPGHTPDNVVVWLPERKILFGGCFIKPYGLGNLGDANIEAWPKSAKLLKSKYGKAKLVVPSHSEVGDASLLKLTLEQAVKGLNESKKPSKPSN

| SMILES | Serratia marcescens expressing IMP-1 (CL5741) MITC95 [1] | Klebsiella pneumoniae expressing VIM-1 (IHMA599644) MITC95 [2] | Escherichia coli expressing NDM-1 (CLB30016) MITC95 [3] | P. aeruginosa expressing IMP-1, efflux − (MB9799) MITC95 [4] | P. aeruginosa expressing IMP-1, efflux + (MB9798) MITC95 [5] | IC50 [6, 9] | IC50 [7] | IC50 ([6]; VIM-1 IC50, fluorescence assay) | Serratia marcescens MITC95 [1] | Klebsiella pneumoniae MITC95 [2] | Escherichia coli MITC95 [3] | Concentration of metallo-β-lactamase inhibitor which restores susceptibility of efflux − (MB9799) strain to imipenem [4] | Concentration of metallo-β-lactamase inhibitor which restores susceptibility of efflux + (MB9798) strain to imipenem [5] | IC50 [8, 10] | IC50 ([8]; IMP-1 IC50, fluorescence assay) |
| --- | --- | --- | --- | --- | --- | --- | --- | --- | --- | --- | --- | --- | --- | --- | --- |
| CC(C)(CN)NS(=O)(=O)c1ccc(-c2cccc3sc(N)nc23)c(-c2nnn[nH]2)c1S(N)(=O)=O.O=CO [Example 117, 2-(4-(2-aminobenzo[d]thiazol-4-yl)-2-sulfamoyl-3-(1H-tetrazol-5-yl)phenylsulfonamido)-2-methylpropan-1-aminium formate] | 3.125 µM | 3.125 µM | 6.25 µM | 1.563 µM | 1.563 µM | 0.183 nM | 0.0126 nM |  |  |  |  |  |  |  |  |
| Nc1nc2c(-c3ccc(S(=O)(=O)N[C@H]4C[C@H](N)C4)c(S(N)(=O)=O)c3-c3nnn[nH]3)cccc2s1.O=C(O)C(F)(F)F [Example 98, (1r,3r)-3-(4-(2-aminobenzo[d]thiazol-4-yl)-2-sulfamoyl-3-(1H-tetrazol-5-yl)phenylsulfonamido)cyclobutanaminium 2,2,2-trifluoroacetate] | 1.563 µM | 2.604 µM | 1.823 µM | 1.042 µM | 0.7813 µM |  | 0.0365 nM | 0.169 nM |  |  |  |  |  |  |  |
| Nc1nc2c(-c3ccc(S(=O)(=O)NCC(N)C(F)F)c(S(N)(=O)=O)c3-c3nnn[nH]3)cccc2s1.O=CO (centres unmarked) [Example 118, 3-(4-(2-aminobenzo[d]thiazol-4-yl)-2-sulfamoyl-3-(1H-tetrazol-5-yl)phenylsulfonamido)-1,1-difluoropropan-2-aminium formate] | 6.25 µM | 12.5 µM | 25 µM | 3.125 µM | 12.5 µM |  | 0.026 nM | 0.289 nM |  |  |  |  |  |  |  |
| Nc1nc2c(-c3ccc(S(=O)(=O)N4CC5C(N)C5C4)c(S(N)(=O)=O)c3-c3nnn[nH]3)cccc2s1.O=C(O)C(F)(F)F [Example 113, (1R,5S,6s)-3-((4-(2-aminobenzo[d]thiazol-4-yl)-2-sulfamoyl-3-(1H-tetrazol-5-yl)phenyl)sulfonyl)-3-azabicyclo[3.1.0]hexan-6-aminium 2,2,2-trifluoroacetate] | 3.125 µM | 3.125 µM | 1.563 µM | 1.563 µM | 1.563 µM | 0.773 nM | 0.646 nM |  |  |  |  |  |  |  |  |
| C[C@H](N)Cc1nc2c(-c3ccc(S(=O)(=O)N[C@@H]4CCNC4)c(S(N)(=O)=O)c3-c3nn[nH]n3)cccc2[nH]1 [Example 441, 4-(2-((S)-2-Aminopropyl)-1H-benzo[d]imidazol-4-yl)-N1-((R)-pyrrolidin-3-yl)-3-(2H-tetrazol-5-yl)benzene-1,2-disulfonamide] |  |  |  |  |  | 0.15 nM | 0.0811 nM |  | 1.563 µM | 1.563 µM | 1.563 µM | 0.7813 | 1.563 | 1.23 nM |  |
| Nc1ccc(-c2ccc(S(=O)(=O)N[C@@H]3CNC[C@@H]3N)c(S(N)(=O)=O)c2-c2nn[nH]n2)cn1 [Example 414] |  |  |  |  |  | 0.347 nM | 0.329 nM |  | 0.7813 µM | 3.125 µM | 0.3906 µM | 1.563 | 1.563 | 0.786 nM |  |
| Nc1nc2c(-c3ccc(S(=O)(=O)NC[C@@H]4CCCN4)c(S(N)(=O)=O)c3-c3nnn[nH]3)cccc2s1.O=CO [Example 125, (S)-2-((4-(2-aminobenzo[d]thiazol-4-yl)-2-sulfamoyl-3-(1H-tetrazol-5-yl)phenylsulfonamido)methyl)pyrrolidin-1-ium formate] | 1.563 µM | 3.125 µM | 1.563 µM | 1.563 µM | 0.7813 µM | 0.196 nM | 0.0465 nM |  |  |  |  |  |  |  |  |
| C[C@H](CN)NS(=O)(=O)c1ccc(-c2cccc3sc(N)nc23)c(-c2nnn[nH]2)c1S(N)(=O)=O [Example 72, (R)-4-(2-aminobenzo[d]thiazol-4-yl)-N^1-(1-aminopropan-2-yl)-3-(1H-tetrazol-5-yl)benzene-1,2-disulfonamide] | 1.563 µM | 3.125 µM | 1.563 µM |  |  |  | 0.02 nM | 0.26 nM |  |  |  |  |  |  | 0.27 nM |
| NCc1nc2c(-c3ccc(S(=O)(=O)NC[C@@H]4CNCCN4)c(S(N)(=O)=O)c3-c3nn[nH]n3)cccc2[nH]1 [Example 311, (S)-4-(2-(aminomethyl)-1H-benzo[d]imidazol-4-yl)-N-(piperazin-2-ylmethyl)-3-(2H-tetrazol-5-yl)benzene-1,2-disulfonamide] |  |  |  | 1.563 µM | 1.563 µM | 0.11 nM | 0.0986 nM |  | 1.563 µM | 3.125 µM | 1.563 µM |  |  |  |  |
| Nc1nc2c(-c3ccc(S(=O)(=O)N[C@@H]4C[C@H]4N)c(S(N)(=O)=O)c3-c3nn[nH]n3)cccc2s1 [Example 388, 4-(2-amino-1,3-benzothiazol-4-yl)-N^1-[(1R,2R)-2-aminocyclopropyl]-3-(2H-tetrazol-5-yl)benzene-1,2-disulfonamide] |  |  |  | 3.125 µM | 1.563 µM |  | 0.0884 nM | 0.375 nM | 3.125 µM | 6.25 µM | 3.125 µM |  |  |  |  |
| Nc1nc2c(-c3ccc(S(=O)(=O)NC4C[C@@H]5CN[C@H]4C5)c(S(N)(=O)=O)c3-c3nnn[nH]3)cccc2s1.O=CO (stereo partly drawn) [Example 119, 4-(2-aminobenzo[d[thiazol-4-yl)-N1-((1S,4R)-2-azabicyclo[2.2.1]heptan-6-yl)-3-(1H-tetrazol-5-yl)benzene-1,2-disulfonamide, formate salt] |  |  |  |  |  | 0.254 nM | 0.0407 nM |  |  |  |  |  |  | 0.223 nM |  |
